Test results reported in patent EP0551200A1, “Protein phosphatase inhibitors for use in therapy” (priority 1992, dated 1993).
Read-outs that look alike come from different tables or passages of the source.

Tests used:
c-fos and c-jun = assay: Northern blot analysis of c-fos and c-jun in Balb/c 3T3 cells; type: cell-based, mouse; details: 15 nM time course
Protocol: 10 µg of RNA was applied to each lane and subjected to Northern blot analysis using an Egr-1 specific cDNA probe [1.6 kb Bgl II fragment (Sukhatme et al, Cell 53, 37-48, 1988)]. The same blots were rehybridized with actin or GADPH cDNA for normalizing the amount of RNA loaded. The blots were dried and autoradiographed. • (A). Time course of okadaic acid-induced Egr-1 and c-jun messages in primary human fibroblasts. Quiescent human fibroblasts were induced with 1 µM of okadaic acid for the time periods indicated. […] Time course of okadaic acid-induced Egr-1 message in Balb/c 3T3 cells. Quiescent Balb/c 3T3 cells were induced with okadaic acid (0.5µM) for the times indicated. • (C). Concentration dependent induction of Egr-1 message by okadaic acid in Balb/c 3T3 cells. Quiescent Balb/c 3T3 cells were induced with the indicated concentrations of okadaic acid for 1 h. As controls, different concentrations of DMSO were included. These corresponded to the amounts present in 0.25 µM okadaic acid (0.025% dimethyl sulphoxide (DMSO)) 0.5 µM okadaic acid (0.05% DMSO) and 1 µM okadaic acid (0.1%). • (D). […]
Cell Cultures and Reagents. […] The blots were autoradiographed and quantitated with the aid of the Visage 2000 Image System (BioImage Products, Ann Arbor, MI, US). […]

Egr-1 protein = type: cell-based; details: 2 h treatment, data not shown
Protocol: Quiescent human fibroblasts were stimulated with MEM containing 0.5 µM okadaic acid in the presence or absence of cycloheximide (10 µg/ml) for the times indicated in Fig. 11. […] Treatment of cells with cycloheximide enhanced the induction of Egr-1 mRNA by okadaic acid at 1.5 and 3 h (Fig. 11). Similarly puromycin, like cycloheximide, also "superinduces" the induction of the Egr-1 mRNA by okadaic acid (data not shown). […] However, in view that protein phosphatase 1 (PP1) and protein phosphatase 2A (PP2A) regulate enzymes associated with cellular protein synthesis (Cohen, Annu. Rev. Biochem. 58, 453-508, 1989) the effect of okadaic acid on protein synthesis in mouse and human fibroblasts was also measured. […] By then the Egr-1 mRNA message was already induced. A corollary to this is a comparison of the amount of ³⁵S-methionine labelled Egr-1 protein immunoprecipitated by R5232 antibodies from protein phosphatase inhibitor-treated and control cells. […] Thus, the induction of the Egr-1 gene by phosphatase inhibitors is unlikely to be mediated by their late inhibitory effects on cellular protein synthesis.

Egr-1 mRNA [1] = assay: cells; type: cell-based, mouse
Protocol: (§1) 10 µg of RNA was applied to each lane and subjected to Northern blot analysis using an Egr-1 specific cDNA probe [1.6 kb Bgl II fragment (Sukhatme et al, Cell 53, 37-48, 1988)]. The same blots were rehybridized with actin or GADPH cDNA for normalizing the amount of RNA loaded. The blots were dried and autoradiographed. • (A). Time course of okadaic acid-induced Egr-1 and c-jun messages in primary human fibroblasts. Quiescent human fibroblasts were induced with 1 µM of okadaic acid for the time periods indicated. […] Time course of okadaic acid-induced Egr-1 message in Balb/c 3T3 cells. Quiescent Balb/c 3T3 cells were induced with okadaic acid (0.5µM) for the times indicated. • (C). Concentration dependent induction of Egr-1 message by okadaic acid in Balb/c 3T3 cells. Quiescent Balb/c 3T3 cells were induced with the indicated concentrations of okadaic acid for 1 h. As controls, different concentrations of DMSO were included. These corresponded to the amounts present in 0.25 µM okadaic acid (0.025% dimethyl sulphoxide (DMSO)) 0.5 µM okadaic acid (0.05% DMSO) and 1 µM okadaic acid (0.1%). • (D). Concentration dependent and time course induction of Egr-1 message by calyculin A. Quiescent Balb/c 3T3 cells were induced with different concentrations of calyculin A for 1 h. Northern analysis of this dose-dependent induction by calyculin A is shown on the left panel of the figure. […] Northern analysis of this time course induction by calyculin A is shown in the right panel of the figure. The same blot was rehybridized with pCMV-fos (Curran et al, Oncogene 2, 79-84, 1987) and pCMV-jun (Rauscher et al, 1988) shown in the middle panel. The blot was dried and autoradiographed.
(§2) Quiescent primary human fibroblasts were incubated with okadaic acid (OA) or TPA for 1 or 3 h. The concentrations of OA and TPA were 0.5 µM and 120 ng/ml, respectively. The concentration of 1-(5-isoquinolinylsulfonyl)-2-methylpiperazine dihydrochloride (H7) and N-(2-guanidinoethyl)-5-isoquinolinesulphonamide dihydrochloride (HA1004) used was 25 µM. The cells were pre-treated for 15 min with H7 or HA1004 before they were induced by OA or TPA for 1 or 3 h. Cells were harvested, RNA was isolated and subjected to Northern blot analysis. The blot was probed with Egr-1 or GADPH cDNA. • (B). As a positive control, primary human fibroblasts were treated with TPA (30 ng/ml) for 1 h (1st lane). The fibroblasts were also pre-treated with H7 (25 µM) or HA1004 (25 µM) for 15 min before treatment with TPA for 1 h (2nd and 3rd lanes respectively). […] The blot was probed with Egr-1 or actin cDNA. • (C). Quiescent Balb/c 3T3 cells were incubated with OA, TPA or dBt-cAMP for 1 h or pre-treated with H7 (25 µM) or HA1004 (25 µM) for 15 min and then incubated with each of the agonists for 1 h. Cells were harvested, RNA was isolated and subjected to Northern blot analysis. The concentration of each agonist used was as follows: lane a: 0.5 µM of OA, lane b: 100 ng/ml of TPA, lane c: 1 mM of dBt-cAMP, lane d: H7 plus OA (0.5 µM), lane e: H7 plus TPA (100 ng/ml), lane f: H7 plus dBt-cAMP (1 mM), lane g: HA1004 plus OA (0.5 µM), lane h: HA1004 plus TPA (100 ng.ml), lane i: HA1004 plus dBt-cAMP (1mM). The blot was probed with Egr-1 or GADPH cDNA.
Cell Cultures and Reagents. Human diploid foreskin fibroblasts were a gift from Dr J Vilcek (New York University, New York). The cells were grown in MEM supplemented with 10% fetal bovine serum (Hyclone, Logan, UT, US), Mouse Balb/c 3T3 cells were purchased from the American Type Culture Collection and grown in Dulbecco's MEM (DMEM) supplemented with 10% fetal bovine serum. Okadaic acid, calyculin A, H7, and HA1004 were purchased from Biomol Research Laboratories (Plymouth Meeting, PA, US). TPA, puromycin and dBt-cAMP were purchased from Sigma (St Louis, MO, US) 1 mM stock solutions of okadaic acid or calyculin A were solubilized in DMSO. [³²P]orthophosphate and other radioactive chemicals were purchased from Du Pont-New England Nuclear (Boston, MA). […]

Egr-1 mRNA [2] = assay: Northern blot analysis of Egr-1 mRNA induction in quiescent primary human fibroblasts; type: cell-based
Protocol: Quiescent human fibroblasts were incubated with TNF (500 units/ml) (a) or OA (500 nM) (b) for 0, 30, 60 min after which total cellular RNA was extracted. Blots of RNA from these cells were hybridized to radiolabeled (10⁶ cpm/ml) Egr-1 cDNA probe. c, the blot in b was stripped and reprobed with c-jun cDNA. Note: Egr-1 mRNA probe was not completely stripped from the blot. The autoradiograph of the blot is presented. d, regularly maintained cells were incubated wither with no additions (control, 0 time) or with OA for 1, 3, 5, 7 h and Northern analysis was carried out with an IL-6 cDNA probe (ATCC, Rockville, MD, US).
as §1
Cells were incubated with either 0.5 µM of okadaic acid or 10 µg/ml of cycloheximide as well as with 0.5 µM of okadaic acid and 10 µg/ml of cycloheximide for 1.5, 3 or 6 h. Cells were harvested, RNA isolated and subjected to Northern blot analysis. The blot was probed with Egr-1 or actin cDNA.
as §2, with “The concentration of each agonist used was as follows: lane a: 0.5 µM of OA, lane b: 100 ng/ml of TPA, lane c: 1 mM of dBt-cAMP, lane d: H7 plus OA (0.5 µM), lane e: H7 plus TPA (100 ng/ml), lane f: H7 plus dBt-cAMP (1 mM), lane g: HA1004 plus OA (0.5 µM), lane h: HA1004 plus TPA (100 ng.ml), lane i: HA1004 plus dBt-cAMP (1mM). The blot was probed with Egr-1 or GADPH cDNA.” left out

human fibroblasts = assay: Early protein phosphorylation changes in 32P-labeled cells, two-dimensional gel electrophoresis with computerized densitometry; type: cell-based
Protocol: The cells were then subjected to analysis by high resolution two-dimensional gel electrophoresis combined with computerized imaging as previously described (Guy et al, J. Biol. Chem. 266, 14343-14352, 1991).
Radiolabeling of Cells and Cell Lysis - For labeling with [³²P]orthophosphate cells were plated onto 90 mm plastic tissue culture dishes and incubated for 3 days for the cells to become confluent. Immediately before labeling, the media was removed and the cells were washed twice with 5 ml of phosphate- and serum-free media (150 mM NaCl, 5 mM MgCl₂, 5 mM KCl, 1.6 mM CaCl₂, 0.5% glucose, 10 mM Tris, 0.1% bovine serum albumin, pH 7.4) before the addition of 1 mCi/ml of [³²P]orthophosphate in 3 ml of the same media to each plate. The plates were incubated at 37°C in a humidified CO₂ incubator for 2 h before the addition of the okadaic acid or other agonists at the concentrations and for the times indicated in the figures and table. The agonists were reconstituted in aqueous buffered solution or in dimethyl sulfoxide. […] At the completion of labeling the media was removed, and the cells were rapidly washed twice with 5 ml of ice-cold phosphate-buffered saline before being solubilised in 200 µl of cytosol extraction buffer (10mM Tris-HCl, 50 mM EDTA, 50 mM NaCl, 30 mM sodium pyrophosphate, 50 mM NaF, 100µM Na₃VO₄, 0.65% Nonidet P-40, 2 mM leupeptin, 2mM phenylmethylsulfonyl fluoride, pH 7.4). The lysate was collected and centrifuged for 5 min at 14,000 rpm. The pellet containing the nuclear fraction (including the cytoskeletal-membrane fractions) was separated from the cytosolic fraction. Both fractions were lyophilized.
Two-dimensional Gel Electrophoresis - The lyophilized fractions (each of approximately 12 µg) were subjected to isoelectric focusing for 18,000 V/h with pH 3-10 ampholytes using the Millipore Investigator two-dimensional electrophoresis system (Millipore). Following this, the first-dimension gel was extruded and equilibrated in SDS buffer for 2 min before being loaded onto the second dimension 12.5% SDS-polyacrylamide gel. The gel was fixed, dried and ³²P-labeled polypeptides were located by autoradiography by using intensifying screens at -80°C. For measurement of the pH profile, carbamylated protein standards (Pharmacia LKB Biotechnology Inc.) were co-run on duplicate gels and related to proteins of known pI on previously calibrated samples. Molecular weight marker proteins from Sigma were detected by Coomassie Blue staining and marked on the autoradiogram. ³²P-Labeled 27 hsp complex prepared from human fibroblasts heat shocked at 43°C for 30 min was also used as a marker.
Quantitative Determination of Protein Phosphorylation - The amount of protein phosphorylation on autoradiographs derived from cytosolic membrane or antibody-precipitated preparations containing equal amounts of protein were analyzed by computerized densitometry using a Visage 2000 Image analysis system (BioImage Products, Ann Arbor, MI, US).
The ³²P-labeled protein spots are resolved and detected by autoradiography of the high definition two-dimensional gel electrophoresis of cytosolic extracts prepared from ³²P-labeled human fibroblasts. The radioactive spots (each representing one or more phosphoproteins) are analyzed by computerized densitometry. Each spot is arbitrarily assigned a number. […]

## COC[C@@H]([C@H](O)[C@H](O)C(=O)NCC[C@H](C)c1nc(/C=C/C[C@@H]2O[C@]3(C[C@@H](O)[C@@H]2C)O[C@H]([C@H](C[C@H](O)[C@H](C)[C@H](O)[C@H](C)/C=C(C)/C(C)=C/C=C/C(C)=C\C#N)OC)[C@H](OP(=O)(O)O)C3(C)C)co1)N(C)C [calyculin A]
c-fos and c-jun
  induction of immediate-early genes c-fos and c-jun (in words): also induced
Egr-1 protein
  amount of 35S-methionine labeled Egr-1 protein relative to control cells: 4 to 5 fold
Egr-1 mRNA [1]; 1 h
  concentration up to which induction of Egr-1 mRNA increased dose-dependently: up to 25 nM
Egr-1 mRNA [1]; 1 h, calyculin A compared with okadaic acid
  concentration inducing an equivalent fold increase in Egr-1 mRNA: 10 nM

## COc1ccc(C[C@H](N)C(=O)N[C@H]2[C@@H](O)[C@H](n3cnc4c(N(C)C)ncnc43)O[C@@H]2CO)cc1 [puromycin]
Egr-1 mRNA [2]; 0.5 µM okadaic acid, protein synthesis inhibitor
  effect on the induction of Egr-1 mRNA by okadaic acid (in words): superinduces

## CC1CNCCN1S(=O)(=O)c1cccc2cnccc12.Cl.Cl (stereo not shown) [H7, 1-(5-isoquinolinylsulfonyl)-2-methylpiperazine dihydrochloride]
Egr-1 mRNA [2]; 25 µM, 15 min pre-treatment
  block of induction of Egr-1 message by okadaic acid or TPA (in words): effectively blocked
Egr-1 mRNA [1]; 25 µM, 15 min pre-treatment
  block of induction of Egr-1 message by okadaic acid or TPA (in words): effectively blocked

## O-tetradecanoylphorbol 13-acetate [TPA]
Human fibroblasts
  pattern of early protein phosphorylation changes (in words): quite different from that produced by okadaic acid or TNF

## C[C@@H]1C[C@@H]([C@H](O)CC2CC(=O)NC(=O)C2)C(=O)[C@@H](C)C1 [cycloheximide]
Egr-1 mRNA [2]
  effect on the induction of Egr-1 mRNA by okadaic acid (in words): enhanced
  induction of Egr-1 mRNA by the substance alone (in words): induced Egr-1 mRNA
